Source: PubChem BioAssay AID248 (DTP/NCI, 2004)
Several values for one entry are separate records, joined by “and”; a condition that tells them apart may be missing. Identical values can stand only once. Toxic doses and inconclusive results are not listed.

System: L1210 leukemia ip in BDF1 mice, survival T/C
Test: NCI In Vivo Anticancer Drug Screen. Data for tumor model L1210 Leukemia (intraperitoneal) in B6D2F1 (BDF1) mice
Conditions: endpoint: mean survival time, higher = longer survival
Method in brief: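 Antitumor effect is assessed in tumor-bearing animals. Survival in the compound arm is compared with a vehicle-dosed control arm and expressed as their quotient.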

[1] = dose: 100.0 mg/kg/injection, schedule: Q01DX001 (ip), vehicle: carboxymethylcellulose (CMC)
[2] = dose: 200.0 mg/kg/injection, schedule: Q01DX001 (ip), vehicle: carboxymethylcellulose (CMC)
[3] = dose: 400.0 mg/kg/injection, schedule: Q01DX001 (ip), vehicle: carboxymethylcellulose (CMC)
[4] = dose: 25.0 mg/kg/injection, schedule: Q01DX009 (ip), vehicle: saline
[5] = dose: 50.0 mg/kg/injection, schedule: Q01DX009 (ip), vehicle: saline with Tween-80
[6] = dose: 100.0 mg/kg/injection, schedule: Q01DX009 (ip), vehicle: saline with Tween-80
[7] = dose: 200.0 mg/kg/injection, schedule: Q01DX009 (ip), vehicle: saline with Tween-80
[8] = dose: 50.0 mg/kg/injection, schedule: Q01DX009 (ip), vehicle: Klucel (hydroxypropylcellulose) (HPC)
[9] = dose: 100.0 mg/kg/injection, schedule: Q01DX009 (ip), vehicle: Klucel (hydroxypropylcellulose) (HPC)
[10] = dose: 100.0 mg/kg/injection, schedule: Q04DX003 (ip), vehicle: Klucel (hydroxypropylcellulose) (HPC)
[11] = dose: 200.0 mg/kg/injection, schedule: Q04DX003 (ip), vehicle: Klucel (hydroxypropylcellulose) (HPC)
[12] = dose: 400.0 mg/kg/injection, schedule: Q04DX003 (ip), vehicle: Klucel (hydroxypropylcellulose) (HPC)
[13] = dose: 100.0 mg/kg/injection, schedule: Q04DX003 (ip), vehicle: saline with Tween-80
[14] = dose: 200.0 mg/kg/injection, schedule: Q04DX003 (ip), vehicle: saline with Tween-80
[15] = dose: 400.0 mg/kg/injection, schedule: Q01DX009 (ip), vehicle: saline with Tween-80
[16] = dose: 400.0 mg/kg/injection, schedule: Q04DX003 (ip), vehicle: saline with Tween-80
[17] = dose: 100.0 mg/kg/injection, schedule: Q01DX001 (ip), vehicle: Klucel (hydroxypropylcellulose) (HPC)
[18] = dose: 200.0 mg/kg/injection, schedule: Q01DX001 (ip), vehicle: Klucel (hydroxypropylcellulose) (HPC)
[19] = dose: 400.0 mg/kg/injection, schedule: Q01DX001 (ip), vehicle: Klucel (hydroxypropylcellulose) (HPC)
[20] = dose: 200.0 mg/kg/injection, schedule: Q01DX009 (ip), vehicle: Klucel (hydroxypropylcellulose) (HPC)
[21] = dose: 50.0 mg/kg/injection, schedule: Q01DX009 (ip), vehicle: saline
[22] = dose: 100.0 mg/kg/injection, schedule: Q01DX009 (ip), vehicle: saline
[23] = dose: 200.0 mg/kg/injection, schedule: Q01DX009 (ip), vehicle: saline
[24] = dose: 400.0 mg/kg/injection, schedule: Q01DX009 (ip), vehicle: saline
[25] = dose: 100.0 mg/kg/injection, schedule: Q04DX003 (ip), vehicle: saline

`CCOC(=O)c1cc(C)nc(Cl)c1C#N` was tested, and the T/C [1] was 96 % of control, the T/C [2] was 96 % of control and the T/C [3] was 93 % of control.

For `CN1CC(C(=O)NC(C)(C)C)CC(c2ccccc2)C1` (stereo not drawn), the T/C (dose: 6.25 mg/kg/injection, schedule: Q01DX009 (ip), vehicle: saline) was 91 % of control, the T/C (dose: 12.5 mg/kg/injection, schedule: Q01DX009 (ip), vehicle: saline) was 86 % of control and the T/C [4] was 86 % of control.

With `CCCCCCCCCCCCC/C=N/Nc1ccc([N+](=O)[O-])cc1[N+](=O)[O-]` the T/C [5] was 100 % of control, the T/C [6] was 93 % of control and the T/C [7] was 93 % of control.

With `CC1=CC(=C(c2ccccc2)c2ccccc2)C=C(C)C1=O` the T/C (dose: 12.0 mg/kg/injection, schedule: Q01DX009 (ip), vehicle: Klucel (hydroxypropylcellulose) (HPC)) was 103 % of control, the T/C (dose: 25.0 mg/kg/injection, schedule: Q01DX009 (ip), vehicle: Klucel (hydroxypropylcellulose) (HPC)) was 107 % of control and the T/C [8] was 97 % of control. The T/C [9] was 100 % of control, the T/C [10] was 102 % of control and the T/C [11] was 102 % of control. For the same molecule, the T/C [12] was 122 % of control.

`[Cl][Cd][Cl].c1ccc(N=P(c2ccccc2)(c2ccccc2)c2ccccc2)cc1` was tested, and the T/C (dose: 9.38 mg/kg/injection, schedule: Q01DX001 (ip), vehicle: other) was 105 % of control.

In the case of `CCC(C(=O)OC)C1CCCCC1` (stereo not drawn), the T/C [6] is reported as 100 % of control, the T/C [13] is reported as 103 % of control and the T/C [7] is reported as 87 % of control. For the same molecule, the T/C [14] was 95 % of control, the T/C [15] was 92 % of control and the T/C [16] was 95 % of control.

For `CC12C(=O)OC(=O)C1C1C=CC2CC1` (stereo not drawn), the T/C [13] was 101 % of control, the T/C [14] was 98 % of control and the T/C [16] was 101 % of control.

For `O=C(CN1CC1)NCc1ccc(CNC(=O)CN2CC2)cc1`, the T/C (dose: 1.5 mg/kg/injection, schedule: Q01DX009 (ip), vehicle: carboxymethylcellulose (CMC)) was 111 % of control, the T/C (dose: 6.0 mg/kg/injection, schedule: Q01DX009 (ip), vehicle: carboxymethylcellulose (CMC)) was 106 % of control and the T/C (dose: 6.25 mg/kg/injection, schedule: Q01DX009 (ip), vehicle: carboxymethylcellulose (CMC)) was 118 % of control. The T/C (dose: 7.3 mg/kg/injection, schedule: Q01DX001 (ip), vehicle: carboxymethylcellulose (CMC)) was 115 % of control, the T/C (dose: 11.0 mg/kg/injection, schedule: Q01DX001 (ip), vehicle: carboxymethylcellulose (CMC)) was 121 % of control and the T/C (dose: 11.1 mg/kg/injection, schedule: Q01DX009 (ip), vehicle: carboxymethylcellulose (CMC)) was 158 % of control. For the same molecule, the T/C (dose: 12.5 mg/kg/injection, schedule: Q01DX009 (ip), vehicle: carboxymethylcellulose (CMC)) was 183 % of control, the T/C (dose: 16.6 mg/kg/injection, schedule: Q01DX009 (ip), vehicle: carboxymethylcellulose (CMC)) was 163 % of control and the T/C (dose: 25.0 mg/kg/injection, schedule: Q01DX009 (ip), vehicle: carboxymethylcellulose (CMC)) was 153 % of control and 183 % of control. For the same molecule, the T/C (dose: 37.5 mg/kg/injection, schedule: Q01DX001 (ip), vehicle: carboxymethylcellulose (CMC)) was 155 % of control.

With `Nc1cc(NC(c2ccccc2)c2ccccc2)c([N+](=O)[O-])c(N)n1` the T/C (dose: 100.0 mg/kg/injection, schedule: Q01DX001 (ip), vehicle: saline with Tween-80) was 98 % of control, the T/C (dose: 200.0 mg/kg/injection, schedule: Q01DX001 (ip), vehicle: saline with Tween-80) was 98 % of control and the T/C (dose: 400.0 mg/kg/injection, schedule: Q01DX001 (ip), vehicle: saline with Tween-80) was 93 % of control.

In the case of `COC(=O)C1C(c2ccc(-c3ccccc3)cc2)N1C1CCCCC1` (stereo not drawn), the T/C [17] is reported as 96 % of control, the T/C [10] is reported as 104 % of control and the T/C [18] is reported as 95 % of control. For the same molecule, the T/C [11] was 107 % of control, the T/C [19] was 93 % of control and the T/C [12] was 98 % of control.

For `O=C(Nc1ccc(Cl)cc1)Nc1ccc(Cl)c(C(F)(F)F)c1`, the T/C [1] was 108 % of control, the T/C [2] was 111 % of control and the T/C [3] was 111 % of control.

For `Clc1cccc(NCCc2ccccc2)c1`, the T/C [10] was 94 % of control, the T/C [11] was 94 % of control and the T/C [12] was 102 % of control.

In the case of `NC(CO)CO`, the T/C (dose: 100.0 mg/kg/injection, schedule: Q04DX002 (ip), vehicle: saline) is reported as 105 % of control, the T/C (dose: 200.0 mg/kg/injection, schedule: Q04DX002 (ip), vehicle: saline) is reported as 108 % of control and the T/C (dose: 400.0 mg/kg/injection, schedule: Q04DX002 (ip), vehicle: saline) is reported as 105 % of control.

For `CC(=O)Nc1ccc(Oc2ccccc2)cc1`, the T/C [8] was 102 % of control, the T/C [9] was 101 % of control and the T/C [10] was 95 % of control and 101 % of control. The T/C [20] was 106 % of control, the T/C [11] was 97 % of control and 100 % of control and the T/C [12] was 102 % of control.

With `CSc1ccc(OC2CCCCC2OS(C)(=O)=O)cc1` (stereo not drawn) the T/C [17] was 102 % of control, the T/C [9] was 98 % of control and the T/C [10] was 107 % of control. For the same molecule, the T/C [18] was 102 % of control, the T/C [20] was 98 % of control and the T/C [11] was 91 % of control. The T/C [19] was 94 % of control, the T/C (dose: 400.0 mg/kg/injection, schedule: Q01DX009 (ip), vehicle: Klucel (hydroxypropylcellulose) (HPC)) was 96 % of control and the T/C [12] was 96 % of control.

With `O=C1NC2(CCCCC2)C(=O)N1CCN(CCO)CCO` the T/C [21] was 106 % of control, the T/C [22] was 109 % of control and the T/C [23] was 93 % of control. The T/C [24] was 91 % of control.

With `CC(C)=CCC/C(C)=C/CO` the T/C [5] was 92 % of control, the T/C [1] was 95 % of control and the T/C [6] was 98 % of control. The T/C [2] was 108 % of control, the T/C [7] was 98 % of control and the T/C [3] was 101 % of control.

`CCN1c2c(nc(N)[nH]c2=O)NCC1CNc1ccc(C(=O)NC(CCC(=O)O)C(=O)O)cc1` (stereo not drawn) was tested, and the T/C [22] was 103 % of control, the T/C [25] was 108 % of control and the T/C [23] was 115 % of control. For the same molecule, the T/C (dose: 200.0 mg/kg/injection, schedule: Q04DX003 (ip), vehicle: saline) was 104 % of control, the T/C [24] was 94 % of control and the T/C (dose: 400.0 mg/kg/injection, schedule: Q04DX003 (ip), vehicle: saline) was 103 % of control.

With `CCCCCCCCCCCCCCCC(=O)N(CCCN)CCCCCCCCCN(CCCN)C(=O)CCCCCCCCCCCCCCC` the T/C [4] was 96 % of control, the T/C [21] was 97 % of control and the T/C [25] was 91 % of control.

In the case of `O=[N+]([O-])c1ccc(C=Nc2ccc(Cc3ccncc3)cc2)cc1`, the T/C (dose: 100.0 mg/kg/injection, schedule: Q01DX009 (ip), vehicle: carboxymethylcellulose (CMC)) is reported as 93 % of control and 100 % of control, the T/C (dose: 100.0 mg/kg/injection, schedule: Q04DX002 (ip), vehicle: carboxymethylcellulose (CMC)) is reported as 104 % of control and the T/C (dose: 100.0 mg/kg/injection, schedule: Q04DX003 (ip), vehicle: carboxymethylcellulose (CMC)) is reported as 101 % of control. For the same molecule, the T/C (dose: 200.0 mg/kg/injection, schedule: Q01DX009 (ip), vehicle: carboxymethylcellulose (CMC)) was 97 % of control and 98 % of control, the T/C (dose: 200.0 mg/kg/injection, schedule: Q04DX002 (ip), vehicle: carboxymethylcellulose (CMC)) was 98 % of control and the T/C (dose: 200.0 mg/kg/injection, schedule: Q04DX003 (ip), vehicle: carboxymethylcellulose (CMC)) was 94 % of control. For the same molecule, the T/C (dose: 400.0 mg/kg/injection, schedule: Q01DX009 (ip), vehicle: carboxymethylcellulose (CMC)) was 95 % of control and 91 % of control, the T/C (dose: 400.0 mg/kg/injection, schedule: Q04DX002 (ip), vehicle: carboxymethylcellulose (CMC)) was 93 % of control and the T/C (dose: 400.0 mg/kg/injection, schedule: Q04DX003 (ip), vehicle: carboxymethylcellulose (CMC)) was 100 % of control.

`COc1c(NC(=O)C(Br)C(Br)C(=O)O)cccc1[N+](=O)[O-]` (stereo not drawn) was tested, and the T/C [6] was 100 % of control, the T/C [7] was 95 % of control and the T/C [15] was 95 % of control.

For `O=C(COc1cccc(Cl)c1)Nc1cccc(S(=O)(=O)O)c1` (tested in a mixture with another compound), the T/C [17] was 100 % of control, the T/C [18] was 99 % of control and the T/C [19] was 87 % of control.
